The results in this text go back to patent US12539292B2, “BRM targeting compounds and associated methods of use” (Arvinas Operations, Inc., priority 2018, dated 2026).

Each structure is given as a SMILES string. Like-named read-outs stand apart in the source and are kept apart here.

For this test, the target named is T1, BRM (Homo sapiens, UniProt P51531).
T1 construct: In-Cell Western Screen of BRM Degradation in SW1573 Cells; endogenous in cells; host or cells: SW1573
Nature of the test: In-cell Western screen of BRM degradation in SW1573 cells (Dmax and DC50). It is filed as cell-based. In outline:
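Overnight compound treatment (18-20 h, final DMSO 0.1%) of SW1573 cells in DMEM with 10% FBS precedes fixation and in-cell Western staining with 800/680 nm dye-labelled secondaries. Plate images give DC50 and maximal degradation.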

Where [1] appears, read: BRM degradation, SW1573 cells, read-out: DC50.
Where [2] appears, read: BRM degradation, SW1573 cells, tested at the top concentration of between 0.3 and 10 μM, read-out: Dmax (%) (% degraded).
Where [3] appears, read: BRM degradation, SW1573 cells, Table 2D, read-out: *DC50.

T1 sequence (P51531 whole entry): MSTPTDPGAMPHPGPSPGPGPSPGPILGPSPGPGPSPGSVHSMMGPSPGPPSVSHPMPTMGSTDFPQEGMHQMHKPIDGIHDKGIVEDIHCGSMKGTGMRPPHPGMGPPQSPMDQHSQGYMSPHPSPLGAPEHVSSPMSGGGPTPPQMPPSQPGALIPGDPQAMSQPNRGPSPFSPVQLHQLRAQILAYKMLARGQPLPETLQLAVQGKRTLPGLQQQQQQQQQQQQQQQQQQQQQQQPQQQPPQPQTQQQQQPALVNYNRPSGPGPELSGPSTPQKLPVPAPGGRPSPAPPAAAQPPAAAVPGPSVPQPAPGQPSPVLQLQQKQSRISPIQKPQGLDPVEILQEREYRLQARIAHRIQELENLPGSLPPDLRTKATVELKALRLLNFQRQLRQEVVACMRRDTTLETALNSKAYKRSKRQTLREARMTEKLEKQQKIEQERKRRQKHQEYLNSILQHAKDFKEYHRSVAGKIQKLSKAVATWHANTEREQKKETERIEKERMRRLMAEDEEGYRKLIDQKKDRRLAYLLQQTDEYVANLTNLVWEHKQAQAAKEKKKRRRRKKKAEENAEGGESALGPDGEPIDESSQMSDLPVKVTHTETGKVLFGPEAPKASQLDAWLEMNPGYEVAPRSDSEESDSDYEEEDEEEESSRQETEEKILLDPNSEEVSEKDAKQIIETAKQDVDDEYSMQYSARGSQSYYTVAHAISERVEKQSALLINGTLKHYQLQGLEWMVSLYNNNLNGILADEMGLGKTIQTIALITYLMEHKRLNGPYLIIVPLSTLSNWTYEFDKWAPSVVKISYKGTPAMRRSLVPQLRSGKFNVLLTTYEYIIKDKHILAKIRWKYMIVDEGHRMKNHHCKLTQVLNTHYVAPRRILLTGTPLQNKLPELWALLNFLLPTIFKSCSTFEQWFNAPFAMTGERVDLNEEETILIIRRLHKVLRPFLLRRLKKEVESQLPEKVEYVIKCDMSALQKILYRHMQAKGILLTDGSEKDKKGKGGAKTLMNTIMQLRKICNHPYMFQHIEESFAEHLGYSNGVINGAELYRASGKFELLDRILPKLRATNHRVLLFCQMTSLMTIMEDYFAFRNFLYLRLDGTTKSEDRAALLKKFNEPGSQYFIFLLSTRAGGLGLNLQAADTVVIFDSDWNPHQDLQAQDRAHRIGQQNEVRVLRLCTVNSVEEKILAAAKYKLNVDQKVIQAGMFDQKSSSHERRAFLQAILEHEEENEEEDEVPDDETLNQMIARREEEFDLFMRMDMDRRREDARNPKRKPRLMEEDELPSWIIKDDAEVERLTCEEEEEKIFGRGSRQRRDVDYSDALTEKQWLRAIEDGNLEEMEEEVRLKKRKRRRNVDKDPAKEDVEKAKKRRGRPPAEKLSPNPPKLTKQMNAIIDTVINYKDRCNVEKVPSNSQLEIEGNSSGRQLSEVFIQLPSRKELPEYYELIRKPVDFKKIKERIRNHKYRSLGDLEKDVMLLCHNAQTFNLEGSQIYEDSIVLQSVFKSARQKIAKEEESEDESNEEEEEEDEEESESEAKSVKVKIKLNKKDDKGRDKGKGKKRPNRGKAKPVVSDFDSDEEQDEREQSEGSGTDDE

As to `Cc1ncsc1-c1ccc([C@H](CN(C)C)NC(=O)[C@@H]2C[C@@H](O)CN2C(=O)[C@@H](c2cc(OCCN3CCN(CCOc4cc(N5C6CCC5CN(c5cc(-c7ccccc7O)nnc5N)C6)ccn4)CC3)no2)C(C)C)cc1` [compound 281, (2S,4R)-1-((2R)-2-(3-(2-(4-(2-((4-(3-(3-amino-6-(2-hydroxyphenyl)pyridazin-4-yl)-3,8-diazabicyclo[3.2.1]octan-8-yl)pyridin-2-yl)oxy)ethyl)piperazin-1-yl)ethoxy)isoxazol-5-yl)-3-methylbutanoyl)-N-((R)-2-(dimethylamino)-1-(4-(4-methylthiazol-5-yl)phenyl)ethyl)-4-hydroxypyrrolidine-2-carboxamide], the DC50 under setting [1] was less than 0.0025 µM. Moreover, the Dmax under setting [2] is greater than 75%.

In the case of `Cc1cc([C@H](C(=O)N2C[C@H](O)C[C@H]2C(=O)N[C@@H](C)c2ccc(-c3scnc3C)cc2)[C@H](C)COCCCn2cc(-c3cc(-c4ccccc4O)nnc3N)cn2)on1` [compound 560, (2S,4R)-1-((2R,3S)-4-(3-(4-(3-amino-6-(2-hydroxyphenyl)pyridazin-4-yl)-1H-pyrazol-1-yl)propoxy)-3-methyl-2-(3-methylisoxazol-5-yl)butanoyl)-4-hydroxy-N-((S)-1-(4-(4-methylthiazol-5-yl)phenyl)ethyl)pyrrolidine-2-carboxamide], under setting [3], the DC50 is greater than 0.03 µM. With `Cc1cc([C@H](C(=O)N2C[C@H](O)C[C@H]2C(=O)N[C@@H](COCCOCCNc2ccc(-c3ccccc3O)nn2)c2ccc(-c3scnc3C)cc2)C(C)C)on1` [compound 526, (2S,4R)-4-hydroxy-N-((R)-2-(2-(2-((6-(2-hydroxyphenyl)pyridazin-3-yl)amino)ethoxy)ethoxy)-1-(4-(4-methylthiazol-5-yl)phenyl)ethyl)-1-((R)-3-methyl-2-(3-methylisoxazol-5-yl)butanoyl)pyrrolidine-2-carboxamide], where the note is “BRM degradation, read-out: BRM DC50”, the half-maximal degradation concentration (DC50) is greater than 0.03 µM. In the case of `Cc1cc([C@@H](C(=O)N2C[C@H](O)C[C@H]2C(=O)N[C@@H](C)c2ccc(-c3scnc3C)cc2)[C@H](C)COCCCCN2C3CCC2CN(c2cc(-c4ccccc4O)nnc2N)C3)on1` [compound 424, (2S,4R)-1-((2S,3S)-4-(4-(3-(3-amino-6-(2-hydroxyphenyl)pyridazin-4-yl)-3,8-diazabicyclo[3.2.1]octan-8-yl)butoxy)-3-methyl-2-(3-methylisoxazol-5-yl)butanoyl)-4-hydroxy-N-((S)-1-(4-(4-methylthiazol-5-yl)phenyl)ethyl)pyrrolidine-2-carboxamide], the half-maximal degradation concentration (DC50) (degradation of BRM, read-out: BRM DC50) is greater than 0.03 µM. In the case of `Cc1ncsc1-c1ccc([C@H](C)NC(=O)[C@@H]2C[C@@H](O)CN2C(=O)[C@H](c2cc(OCCOCCOCCCCN3CC4(C3)CN(c3cc(-c5ccccc5O)nnc3N)C4)no2)C(C)C)cc1` [compound 65, (2S,4R)-1-((S)-2-(3-(2-(2-(4-(6-(3-amino-6-(2-hydroxyphenyl)pyridazin-4-yl)-2,6-diazaspiro[3.3]heptan-2-yl)butoxy)ethoxy)ethoxy)isoxazol-5-yl)-3-methylbutanoyl)-4-hydroxy-N-((S)-1-(4-(4-methylthiazol-5-yl)phenyl)ethyl)pyrrolidine-2-carboxamide], under setting [1], the half-maximal degradation concentration (DC50) was greater than 0.03 µM. On the same count and under the same terms, then `Cc1ncsc1-c1ccc([C@H](C)NC(=O)[C@@H]2C[C@@H](O)CN2C(=O)[C@H](c2cc(N3CCC4(CCCN(C[C@H]5C[C@H](Oc6cc(N7C8CCC7CN(c7cc(-c9ccccc9O)nnc7N)C8)ccn6)C5)C4)CC3)no2)C(C)C)cc1` [compound 659, (2S,4R)-1-((2S)-2-(3-(2-(((1r,3S)-3-((4-(3-(3-amino-6-(2-hydroxyphenyl)pyridazin-4-yl)-3,8-diazabicyclo[3.2.1]octan-8-yl)pyridin-2-yl)oxy)cyclobutyl)methyl)-2,9-diazaspiro[5.5]undecan-9-yl)isoxazol-5-yl)-3-methylbutanoyl)-4-hydroxy-N-((S)-1-(4-(4-methylthiazol-5-yl)phenyl)ethyl)pyrrolidine-2-carboxamide], with greater than 0.03 µM. `CC(C)[C@@H](C(=O)N1C[C@H](O)C[C@H]1C(=O)N[C@@H](C)c1ccc(C2(F)CC2)cc1)c1cc(N2CCC(CN3CCC(O[C@H]4C[C@H](Oc5cc(N6C7CCC6CN(c6cc(-c8ccccc8O)nnc6N)C7)ccn5)C4)CC3)CC2)no1` [compound 713, (2S,4R)-1-((2R)-2-(3-(4-((4-((1r,3r)-3-((4-(3-(3-amino-6-(2-hydroxyphenyl)pyridazin-4-yl)-3,8-diazabicyclo[3.2.1]octan-8-yl)pyridin-2-yl)oxy)cyclobutoxy)piperidin-1-yl)methyl)piperidin-1-yl)isoxazol-5-yl)-3-methylbutanoyl)-N-((S)-1-(4-(1-fluorocyclopropyl)phenyl)ethyl)-4-hydroxypyrrolidine-2-carboxamide]: the DC50 under setting [1] was in the range of 0.0025 to 0.01 µM. Where the note is “BRM degradation, SW1573 cells, read-out: Dmax (% degraded)”, the greatest degradation seen (Dmax) was greater than 75%. For the molecule `CNC(=O)CCC[C@H](NC(=O)[C@@H]1C[C@@H](O)CN1C(=O)[C@H](c1cc(OCCN2CCC(O[C@H]3C[C@H](Oc4cc(N5C6CCC5CN(c5cc(-c7ccccc7O)nnc5N)C6)ccn4)C3)CC2)no1)C(C)C)c1ccc(-c2scnc2C)cc1` [compound 569, (2S,4R)-1-((2S)-2-(3-(2-(4-((1r,3S)-3-((4-(3-(3-amino-6-(2-hydroxyphenyl)pyridazin-4-yl)-3,8-diazabicyclo[3.2.1]octan-8-yl)pyridin-2-yl)oxy)cyclobutoxy)piperidin-1-yl)ethoxy)isoxazol-5-yl)-3-methylbutanoyl)-4-hydroxy-N-((S)-5-(methylamino)-1-(4-(4-methylthiazol-5-yl)phenyl)-5-oxopentyl)pyrrolidine-2-carboxamide], the DC50 under setting [3] is greater than 0.03 µM. Consider `COc1nc(-c2scnc2C)ccc1[C@H](C)NC(=O)[C@@H]1C[C@@H](O)CN1C(=O)[C@H](c1cc(OCCN2CCC(O[C@H]3C[C@H](Oc4cc(N5C6CCC5CN(c5cc(-c7ccccc7O)nnc5N)C6)ccn4)C3)CC2)no1)C(C)C` [compound 278, (2S,4R)-1-((2S)-2-(3-(2-(4-((1r,3S)-3-((4-(3-(3-amino-6-(2-hydroxyphenyl)pyridazin-4-yl)-3,8-diazabicyclo[3.2.1]octan-8-yl)pyridin-2-yl)oxy)cyclobutoxy)piperidin-1-yl)ethoxy)isoxazol-5-yl)-3-methylbutanoyl)-4-hydroxy-N-((S)-1-(2-methoxy-6-(4-methylthiazol-5-yl)pyridin-3-yl)ethyl)pyrrolidine-2-carboxamide], for which the DC50 under setting [1] is greater than 0.03 µM. On to `Cc1ncsc1-c1ccc([C@H](C)NC(=O)[C@@H]2C[C@@H](O)CN2C(=O)[C@H](c2cc(C#CCN3CCC(OC4CC(Oc5cc(N6C7CC[C@@H]6CN(c6cc(-c8ccccc8O)nnc6N)C7)ccn5)C4)CC3)no2)C(C)C)cc1` (stereo partly drawn) [compound 379, (2S,4R)-1-((2S)-2-(3-(3-(4-((1r,3S)-3-((4-(3-(3-amino-6-(2-hydroxyphenyl)pyridazin-4-yl)-3,8-diazabicyclo[3.2.1]octan-8-yl)pyridin-2-yl)oxy)cyclobutoxy)piperidin-1-yl)prop-1-yn-1-yl)isoxazol-5-yl)-3-methylbutanoyl)-4-hydroxy-N-((S)-1-(4-(4-methylthiazol-5-yl)phenyl)ethyl)pyrrolidine-2-carboxamide], for which the 50% degradation concentration (DC50) (target protein degradation, read-out: BRM DC50) was greater than 0.03 µM. For the molecule `Cc1ncsc1-c1ccc([C@@H](NC(=O)[C@@H]2C[C@@H](O)CN2C(=O)[C@H](c2cc(OCCN3CCN(CCOc4cc(N5C6CCC5CN(c5cc(-c7ccccc7O)nnc5N)C6)ccn4)CC3)no2)C(C)C)C(=O)N(C)C2CCC2)cc1` [compound 245, (2S,4R)-1-((2S)-2-(3-(2-(4-(2-((4-(3-(3-amino-6-(2-hydroxyphenyl)pyridazin-4-yl)-3,8-diazabicyclo[3.2.1]octan-8-yl)pyridin-2-yl)oxy)ethyl)piperazin-1-yl)ethoxy)isoxazol-5-yl)-3-methylbutanoyl)-N-((R)-2-(cyclobutyl(methyl)amino)-1-(4-(4-methylthiazol-5-yl)phenyl)-2-oxoethyl)-4-hydroxypyrrolidine-2-carboxamide], under setting [1], the half-maximal degradation concentration (DC50) lay within 0.0025 to 0.01 µM. Moreover, the Dmax under setting [2] is greater than 75%. As to `Cc1ncsc1-c1ccc([C@H](C)NC(=O)[C@@H]2C[C@@H](O)CN2C(=O)[C@H](c2cc(OCC#Cc3ccc(O[C@H]4C[C@H](Oc5cc(N6C7CCC6CN(c6cc(-c8ccccc8O)nnc6N)C7)ccn5)C4)cn3)no2)C(C)C)cn1` [compound 236, (2S,4R)-1-((2S)-2-(3-((3-(5-((1r,3S)-3-((4-(3-(3-amino-6-(2-hydroxyphenyl)pyridazin-4-yl)-3,8-diazabicyclo[3.2.1]octan-8-yl)pyridin-2-yl)oxy)cyclobutoxy)pyridin-2-yl)prop-2-yn-1-yl)oxy)isoxazol-5-yl)-3-methylbutanoyl)-4-hydroxy-N-((S)-1-(6-(4-methylthiazol-5-yl)pyridin-3-yl)ethyl)pyrrolidine-2-carboxamide], the half-maximal degradation concentration (DC50) under setting [1] is greater than 0.03 µM. The Dmax under setting [2] was greater than 75%. As for `Cc1ncsc1-c1ccc([C@H](C)NC(=O)[C@@H]2C[C@@H](O)CN2C(=O)[C@@H](c2cc(OCCN3CC4CC(C3)N4CCOc3cc(N4C5CCC4CN(c4cc(-c6ccccc6O)nnc4N)C5)ccn3)no2)C(C)C)cc1` [compound 133, (2S,4R)-1-((2R)-2-(3-(2-(6-(2-((4-(3-(3-amino-6-(2-hydroxyphenyl)pyridazin-4-yl)-3,8-diazabicyclo[3.2.1]octan-8-yl)pyridin-2-yl)oxy)ethyl)-3,6-diazabicyclo[3.1.1]heptan-3-yl)ethoxy)isoxazol-5-yl)-3-methylbutanoyl)-4-hydroxy-N-((S)-1-(4-(4-methylthiazol-5-yl)phenyl)ethyl)pyrrolidine-2-carboxamide], the DC50 under setting [1] is less than 0.0025 µM. Also, the Dmax (BRM degradation, SW1573 cells, when tested at the top concentration of between 0.3 and 10 μM, read-out: Dmax (%) (% degraded)) is greater than 75%.
